Test results as given in publication PMC9299836 (eLife, 2022).

Biological target: mGluR2 (Mus musculus, UniProt Q14BI2, A548F)
Assay: smFRET of azi-CRD: cross-correlation of donor and acceptor intensities (CRD dynamics) and HMM transition density plots;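 also: single detergent-solubilized receptors captured on antibody-coated flow cells via C-terminal FLAG-tag, imaged by smFRET, donor and acceptor intensity traces from three independent biological replicates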

mGluR2, sequence (Q14BI2 19-872 A548F): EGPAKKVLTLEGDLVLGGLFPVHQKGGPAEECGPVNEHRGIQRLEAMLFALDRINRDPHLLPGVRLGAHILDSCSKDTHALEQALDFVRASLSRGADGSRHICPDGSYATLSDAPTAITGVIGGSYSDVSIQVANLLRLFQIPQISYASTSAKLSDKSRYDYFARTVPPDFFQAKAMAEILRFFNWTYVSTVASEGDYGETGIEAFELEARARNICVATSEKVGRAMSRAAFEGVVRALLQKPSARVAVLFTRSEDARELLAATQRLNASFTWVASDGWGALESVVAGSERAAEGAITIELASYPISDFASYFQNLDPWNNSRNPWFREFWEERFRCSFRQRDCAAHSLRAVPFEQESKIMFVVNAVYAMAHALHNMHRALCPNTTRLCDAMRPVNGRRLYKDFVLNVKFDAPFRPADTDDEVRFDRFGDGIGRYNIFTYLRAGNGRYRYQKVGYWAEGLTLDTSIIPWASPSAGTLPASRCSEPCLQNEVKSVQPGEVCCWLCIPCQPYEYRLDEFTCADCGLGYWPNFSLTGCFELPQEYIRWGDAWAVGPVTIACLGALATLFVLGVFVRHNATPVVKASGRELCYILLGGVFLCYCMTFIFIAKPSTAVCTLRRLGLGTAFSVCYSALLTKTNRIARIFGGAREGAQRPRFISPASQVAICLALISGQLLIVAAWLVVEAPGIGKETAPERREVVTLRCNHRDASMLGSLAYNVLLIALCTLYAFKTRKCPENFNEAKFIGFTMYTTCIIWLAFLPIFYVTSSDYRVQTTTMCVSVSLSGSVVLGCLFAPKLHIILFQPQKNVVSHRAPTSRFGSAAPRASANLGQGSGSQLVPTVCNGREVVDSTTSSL

Cc1c(OCc2cccc(-c3ccc(C(=O)O)cc3)c2)cc2c(c1C)C(=O)C(C1CCCC1)C2 (centres unmarked) [BINA]
Cross Correlation, Mean (0μM Glutamate + GPT/Pyruvate + 10μM BINA, Time 0 s, N 3): -0.309 | Cross Correlation, Mean (0μM Glutamate + GPT/Pyruvate + 10μM BINA, Time 0.05 s, N 3): -0.1732 | Cross Correlation, Mean (0μM Glutamate + GPT/Pyruvate + 10μM BINA, Time 0.1 s, N 3): -0.1405 | Cross Correlation, Mean (0μM Glutamate + GPT/Pyruvate + 10μM BINA, Time 0.15 s, N 3): -0.1268 | Cross Correlation, Mean (0μM Glutamate + GPT/Pyruvate + 10μM BINA, Time 0.2 s, N 3): -0.1138 | Cross Correlation, Mean (0μM Glutamate + GPT/Pyruvate + 10μM BINA, Time 0.25 s, N 3): -0.1079 | Cross Correlation, Mean (0μM Glutamate + GPT/Pyruvate + 10μM BINA, Time 0.3 s, N 3): -0.1007 | Cross Correlation, Mean (0μM Glutamate + GPT/Pyruvate + 10μM BINA, Time 0.35 s, N 3): -0.09667 | Cross Correlation, Mean (0μM Glutamate + GPT/Pyruvate + 10μM BINA, Time 0.4 s, N 3): -0.08889 | Cross Correlation, Mean (0μM Glutamate + GPT/Pyruvate + 10μM BINA, Time 0.45 s, N 3): -0.08933 | Cross Correlation, Mean (0μM Glutamate + GPT/Pyruvate + 10μM BINA, Time 0.5 s, N 3): -0.08286 | Cross Correlation, Mean (0μM Glutamate + GPT/Pyruvate + 10μM BINA, Time 0.55 s, N 3): -0.07956 | Cross Correlation, Mean (0μM Glutamate + GPT/Pyruvate + 10μM BINA, Time 0.6 s, N 3): -0.07731 | Cross Correlation, Mean (0μM Glutamate + GPT/Pyruvate + 10μM BINA, Time 0.65 s, N 3): -0.07407 | Cross Correlation, Mean (0μM Glutamate + GPT/Pyruvate + 10μM BINA, Time 0.7 s, N 3): -0.07365 | Cross Correlation, Mean (0μM Glutamate + GPT/Pyruvate + 10μM BINA, Time 0.75 s, N 3): -0.06697 | Cross Correlation, Mean (0μM Glutamate + GPT/Pyruvate + 10μM BINA, Time 0.8 s, N 3): -0.06199 | Cross Correlation, Mean (0μM Glutamate + GPT/Pyruvate + 10μM BINA, Time 0.85 s, N 3): -0.06042 | Cross Correlation, Mean (0μM Glutamate + GPT/Pyruvate + 10μM BINA, Time 0.9 s, N 3): -0.05216 | Cross Correlation, Mean (0μM Glutamate + GPT/Pyruvate + 10μM BINA, Time 0.95 s, N 3): -0.05689 | Cross Correlation, Mean (0μM Glutamate + GPT/Pyruvate + 10μM BINA, Time 1 s, N 3): -0.0539 | Cross Correlation, Mean (0μM Glutamate + GPT/Pyruvate + 10μM BINA, Time 1.05 s, N 3): -0.05356 | Cross Correlation, Mean (0μM Glutamate + GPT/Pyruvate + 10μM BINA, Time 1.1 s, N 3): -0.0518 | Cross Correlation, Mean (0μM Glutamate + GPT/Pyruvate + 10μM BINA, Time 1.15 s, N 3): -0.0477 | Cross Correlation, Mean (0μM Glutamate + GPT/Pyruvate + 10μM BINA, Time 1.2 s, N 3): -0.04715 | Cross Correlation, Mean (0μM Glutamate + GPT/Pyruvate + 10μM BINA, Time 1.25 s, N 3): -0.04267 | Cross Correlation, Mean (0μM Glutamate + GPT/Pyruvate + 10μM BINA, Time 1.3 s, N 3): -0.04926 | Cross Correlation, Mean (0μM Glutamate + GPT/Pyruvate + 10μM BINA, Time 1.35 s, N 3): -0.04133 | Cross Correlation, Mean (0μM Glutamate + GPT/Pyruvate + 10μM BINA, Time 1.4 s, N 3): -0.03906 | Cross Correlation, Mean (0μM Glutamate + GPT/Pyruvate + 10μM BINA, Time 1.45 s, N 3): -0.0385 | Cross Correlation, Mean (0μM Glutamate + GPT/Pyruvate + 10μM BINA, Time 1.5 s, N 3): -0.035 | Cross Correlation, Mean (0μM Glutamate + GPT/Pyruvate + 10μM BINA, Time 1.55 s, N 3): -0.03506 | Cross Correlation, Mean (0μM Glutamate + GPT/Pyruvate + 10μM BINA, Time 1.6 s, N 3): -0.03291 | Cross Correlation, Mean (0μM Glutamate + GPT/Pyruvate + 10μM BINA, Time 1.65 s, N 3): -0.03291 | Cross Correlation, Mean (0μM Glutamate + GPT/Pyruvate + 10μM BINA, Time 1.7 s, N 3): -0.03331 | Cross Correlation, Mean (0μM Glutamate + GPT/Pyruvate + 10μM BINA, Time 1.75 s, N 3): -0.03095 | Cross Correlation, Mean (0μM Glutamate + GPT/Pyruvate + 10μM BINA, Time 1.8 s, N 3): -0.02869 | Cross Correlation, Mean (0μM Glutamate + GPT/Pyruvate + 10μM BINA, Time 1.85 s, N 3): -0.03476 | Cross Correlation, Mean (0μM Glutamate + GPT/Pyruvate + 10μM BINA, Time 1.9 s, N 3): -0.02485 | Cross Correlation, Mean (0μM Glutamate + GPT/Pyruvate + 10μM BINA, Time 1.95 s, N 3): -0.02573 | Cross Correlation, Mean (0μM Glutamate + GPT/Pyruvate + 10μM BINA, Time 2 s, N 3): -0.0316 | Cross Correlation, Mean (0μM Glutamate + GPT/Pyruvate + 10μM BINA, Time 2.05 s, N 3): -0.03349 | Cross Correlation, Mean (0μM Glutamate + GPT/Pyruvate + 10μM BINA, Time 2.1 s, N 3): -0.02361 | Cross Correlation, Mean (0μM Glutamate + GPT/Pyruvate + 10μM BINA, Time 2.15 s, N 3): -0.02192 | Cross Correlation, Mean (0μM Glutamate + GPT/Pyruvate + 10μM BINA, Time 2.2 s, N 3): -0.02164 | Cross Correlation, Mean (0μM Glutamate + GPT/Pyruvate + 10μM BINA, Time 2.25 s, N 3): -0.01683 | Cross Correlation, Mean (0μM Glutamate + GPT/Pyruvate + 10μM BINA, Time 2.3 s, N 3): -0.01949 | Cross Correlation, Mean (0μM Glutamate + GPT/Pyruvate + 10μM BINA, Time 2.35 s, N 3): -0.01229 | Cross Correlation, Mean (0μM Glutamate + GPT/Pyruvate + 10μM BINA, Time 2.4 s, N 3): -0.01405 | Cross Correlation, Mean (0μM Glutamate + GPT/Pyruvate + 10μM BINA, Time 2.45 s, N 3): -0.01492 | Cross Correlation, Mean (0μM Glutamate + GPT/Pyruvate + 10μM BINA, Time 2.5 s, N 3): -0.01729 | Cross Correlation, Mean (0μM Glutamate + GPT/Pyruvate + 10μM BINA, Time 2.55 s, N 3): -0.01573 | Cross Correlation, Mean (0μM Glutamate + GPT/Pyruvate + 10μM BINA, Time 2.6 s, N 3): -0.01304 | Cross Correlation, Mean (0μM Glutamate + GPT/Pyruvate + 10μM BINA, Time 2.65 s, N 3): -0.01522 | Cross Correlation, Mean (0μM Glutamate + GPT/Pyruvate + 10μM BINA, Time 2.7 s, N 3): -0.01589 | Cross Correlation, Mean (0μM Glutamate + GPT/Pyruvate + 10μM BINA, Time 2.75 s, N 3): -0.00863 | Cross Correlation, Mean (0μM Glutamate + GPT/Pyruvate + 10μM BINA, Time 2.8 s, N 3): -0.00835 | Cross Correlation, Mean (0μM Glutamate + GPT/Pyruvate + 10μM BINA, Time 2.85 s, N 3): -0.01318 | Cross Correlation, Mean (0μM Glutamate + GPT/Pyruvate + 10μM BINA, Time 2.9 s, N 3): -0.01103 | Cross Correlation, Mean (0μM Glutamate + GPT/Pyruvate + 10μM BINA, Time 2.95 s, N 3): -0.01389 | Cross Correlation, Mean (Time 0.2 s, 1000μM Glutamate + 10μM BINA, N=3): -0.07372 | Cross Correlation, Mean (Time 0.25 s, 1000μM Glutamate + 10μM BINA, N=3): -0.0658 | Cross Correlation, Mean (Time 0.3 s, 1000μM Glutamate + 10μM BINA, N=3): -0.06773 | Cross Correlation, Mean (Time 0.35 s, 1000μM Glutamate + 10μM BINA, N=3): -0.06255 | Cross Correlation, Mean (Time 0.4 s, 1000μM Glutamate + 10μM BINA, N=3): -0.05489 | Cross Correlation, Mean (Time 0.45 s, 1000μM Glutamate + 10μM BINA, N=3): -0.05062 | Cross Correlation, Mean (Time 0.5 s, 1000μM Glutamate + 10μM BINA, N=3): -0.04608 | Cross Correlation, Mean (Time 0.55 s, 1000μM Glutamate + 10μM BINA, N=3): -0.05414 | Cross Correlation, Mean (Time 0.6 s, 1000μM Glutamate + 10μM BINA, N=3): -0.0452 | Cross Correlation, Mean (Time 0.65 s, 1000μM Glutamate + 10μM BINA, N=3): -0.04488 | Cross Correlation, Mean (Time 0.7 s, 1000μM Glutamate + 10μM BINA, N=3): -0.04657 | Cross Correlation, Mean (Time 0.75 s, 1000μM Glutamate + 10μM BINA, N=3): -0.03909 | Cross Correlation, Mean (Time 0.8 s, 1000μM Glutamate + 10μM BINA, N=3): -0.03858 | Cross Correlation, Mean (Time 0.85 s, 1000μM Glutamate + 10μM BINA, N=3): -0.03795 | Cross Correlation, Mean (Time 0.9 s, 1000μM Glutamate + 10μM BINA, N=3): -0.04083 | Cross Correlation, Mean (Time 0.95 s, 1000μM Glutamate + 10μM BINA, N=3): -0.04226 | Cross Correlation, Mean (Time 1 s, 1000μM Glutamate + 10μM BINA, N=3): -0.03681 | Cross Correlation, Mean (Time 1.05 s, 1000μM Glutamate + 10μM BINA, N=3): -0.03546 | Cross Correlation, Mean (Time 1.1 s, 1000μM Glutamate + 10μM BINA, N=3): -0.03003 | Cross Correlation, Mean (Time 1.15 s, 1000μM Glutamate + 10μM BINA, N=3): -0.02551 | Cross Correlation, Mean (Time 1.2 s, 1000μM Glutamate + 10μM BINA, N=3): -0.0316 | Cross Correlation, Mean (Time 1.25 s, 1000μM Glutamate + 10μM BINA, N=3): -0.02716 | Cross Correlation, Mean (Time 1.3 s, 1000μM Glutamate + 10μM BINA, N=3): -0.03167 | Cross Correlation, Mean (Time 1.35 s, 1000μM Glutamate + 10μM BINA, N=3): -0.03105 | Cross Correlation, Mean (Time 1.4 s, 1000μM Glutamate + 10μM BINA, N=3): -0.03283 | Cross Correlation, Mean (Time 1.45 s, 1000μM Glutamate + 10μM BINA, N=3): -0.03008 | Cross Correlation, Mean (Time 1.5 s, 1000μM Glutamate + 10μM BINA, N=3): -0.02156 | Cross Correlation, Mean (Time 1.55 s, 1000μM Glutamate + 10μM BINA, N=3): -0.02279 | Cross Correlation, Mean (Time 1.6 s, 1000μM Glutamate + 10μM BINA, N=3): -0.0244 | Cross Correlation, Mean (Time 1.65 s, 1000μM Glutamate + 10μM BINA, N=3): -0.02489 | Cross Correlation, Mean (Time 1.7 s, 1000μM Glutamate + 10μM BINA, N=3): -0.02216 | Cross Correlation, Mean (Time 1.75 s, 1000μM Glutamate + 10μM BINA, N=3): -0.02536 | Cross Correlation, Mean (Time 1.8 s, 1000μM Glutamate + 10μM BINA, N=3): -0.02663 | Cross Correlation, Mean (Time 1.85 s, 1000μM Glutamate + 10μM BINA, N=3): -0.0191 | Cross Correlation, Mean (Time 1.9 s, 1000μM Glutamate + 10μM BINA, N=3): -0.02267 | Cross Correlation, Mean (Time 1.95 s, 1000μM Glutamate + 10μM BINA, N=3): -0.02058 | Cross Correlation, Mean (Time 2 s, 1000μM Glutamate + 10μM BINA, N=3): -0.01998 | Cross Correlation, Mean (Time 2.05 s, 1000μM Glutamate + 10μM BINA, N=3): -0.02099 | Cross Correlation, Mean (Time 2.1 s, 1000μM Glutamate + 10μM BINA, N=3): -0.01699 | Cross Correlation, Mean (Time 2.15 s, 1000μM Glutamate + 10μM BINA, N=3): -0.01762 | CRD dynamics by cross-correlation of donor and acceptor intensities (azi-CRD, 10 μM modulator, absence of glutamate): increased receptor dynamics
